Results reported in patent US20170332910A1, “MODIFIED PARAMAGNETIC NANOPARTICLES FOR TARGETED DELIVERY OF THERAPEUTICS AND METHODS THEREOF” (ALBERT EINSTEIN COLLEGE OF MEDICINE, INC., priority 2014, published 2017).

How the values were obtained:
[1] = test system: U87 human glioblastoma cells; test: Cell viability assay (Presto Blue); type: cell-based; conditions: 48 h incubation
Method: FIG. 22 Cytotoxicity of naked curcumin, curcumin conjugated PMNPs and Sol-Gel Nps and blanks (without curcumin) performed on U87 human glioblastoma cells after 48 hours of incubation. Note that 1 μM equivalent curcumin concentration corresponds to 16.7 μg/mL of nanoparticles. […] The data represents the mean±SE, n=3 to 18.
Cells were plated in 24-well trays and allowed to become confluent then incubated with naked curcumin or different curcumin NP concentrations for 48 h. Cell viability was quantified using Presto Blue (Invitrogen) an assay that contains a cell permeable resazurin-based solution that is modified by the reducing environment of the viable cell becoming highly fluorescent. Using a plate reader, cell viability was quantified after 0.5-1 hours of incubation with Presto Blue. All measurements were always accompanied by control wells and by calibration wells to account for background fluorescence using the same culture media and the same NP concentrations without the cells.
U-87 used as an vitro model of human glioblastoma were incubated with either Curcumin or Curcumin loaded NPs.

[2] = test system: xenografted human breast cancer; test: ADM-PMNP plus magnetic field on xenografted human breast cancer (bioluminescence); type: in vivo, mouse; conditions: comparable amount of free drug
Method: FIG. 8 Anti-tumor effect of IV infused Adriamycin loaded PMNP (ADM-PMNP) plus magnetic field treatment on xenografted human breast cancer. Human breast cancer was s.c. xenografted in a female nude mouse. The mouse was injected with 1 mg/kg ADM-PMNP and the tumor was treated with magnetic field for 30 minutes following each injection The mouse was imaged before and after the treatment, the luminescent signals were quantitatively analyzed for change of tumor size. At the end of the treatment, there was a >80% decrease of luminescent signaling in the tumor. The signal recovered partially 3 days after the treatment was ended.
Signal intensity in treated tumor was similar to that in bladder, a major route of PMNP elimination. Next, to assess drug delivery and anti-tumor efficacy, MoB-1833 mammary xenografted tumor-bearing mice were infused with ADM-coated PMNP (ADM-PMNP). ADM use in chemotherapy is limited due to systemic toxicity and it is therefore an excellent model drug for evaluation of the potentially utility of our PMNP platform. […] This ADM dose is 5-20 times lower than doses of free ADM commonly used for in animal studies and similar to doses used clinically. The 4-day treatment achieved a 9-fold reduction in tumor mass (FIG. 8). Tumor rebound upon drug termination confirmed specificity of the drug effect. […] The necrosis was confirmed histologically (FIG. 9Bd-f). […]

MDA-MB-436 = test: Tumor necrosis in MDA-MB-436 xenografts; type: in vivo, mouse; conditions: 1.0 mg/kg
[3] = Histopathological analysis of multiple tissues (toxicity); type: in vivo, mouse; conditions: 1 mg/kg
Method: FIGS. 11(A-B). Systemic effect of the treatment. (A) Representative H&E staining of tissue sections from ADM-PMNP injected mice (1 mg/kg BW)(A). (B) inflammation and hyperplasia were found in colon from mice treated with free ADM (B-left) but not in mice injected with the same dose of ADM-PMNP (B-right).

[4] = test system: human glioblastoma (GBM43); test: LPS-PMNPs and oral temozolomide, survival and drug delivery; type: in vivo, mouse; conditions: oral 20 mg/kg after LPS-PMNP with magnetic field; relative to groups 1-3
Method: In this study, human glioblastoma (GBM43) were again maintained as subcutaneous xenografts. The tumor cells from subcutaneous xenografts were transfer to the intracranial compartment. Cells were suspended in DMEM media at 1×10^5 cells/μL for intracranial injection. 3 μL of tumor cell suspension (3×10^5 cells total) were injected into the right caudate putamen of 6 week-old female athymic mice (nu/nu). Prior to injection, the mice were anesthetized IP (intraperitoneal injection) (ketamine/xylazine). PMNPs (10 mg/kg) with and without LPS were administered via tail vein. 6 hours after administration of PMNPs, 20 mg/kg temozolomide (TMZ) was administrated as oral suspension in a vehicle containing 2.5 mg/ml Povidone K30, 0.015% citric acid, 50% Ora-Plus, 50% Ora-Sweet SF (Paddock Labs Minneapolis, Minn.) on days 12, 18, 24, and 30. The treatment groups were: 1) control (no TMZ); 2) TMZ alone; 3) LPS-PMNP plus TMZ (without magnetic field); and 4) LPS-PMNP plus TMZ with magnetic field (strong localized magnetic field applied to tumor area). The mice were euthanized as the symptoms from the increasing tumor burden prevented access to food/water.

[5] = test system: TNFα, TGBβ, MCP-1, IL-1α, IL-1β, IL-6, IL-10, and IL-12; test: Time-dependent cytokine levels (systemic inflammation); type: in vivo, mice
Method: This study monitored the time-dependent changes in various cytokine levels (TNFα, TGBβ, MCP-1, IL-1α, IL-1β, IL-6, IL-10, and IL-12) for LPS-PMNPs (10 mg/kg) in mice with and without magnetic field (i.e., treatment with or without a localized magnet) as compared with free LPS introduced at 10 mg/kg and 2 mg/kg—a lower concentration than for the LPS carried on the PMNPs. The cytokine levels for each group were measured over a 24-hour period, with measurements at baseline, 1 hour, 6 hours, and 24 hours. The four comparison groups were: A) LPS-PMNP (10 mg/kg) without magnetic field; B) LPS-PMNP (10 mg/kg) with magnetic field; C) free LPS (2 mg/kg); and D) free LPS (10 mg/kg).

[6] = test system: human glioblastoma (GBM43); test: Effect of LPS-PMNPs on delivery of irinotecan, intracranial glioblastoma; type: in vivo, mouse; conditions: LPS-PMNP plus magnetic field vs groups 1 and 2, 24 hours after dose on day 18
Method: In this study, human glioblastoma (GBM43) were maintained as subcutaneous xenografts. The tumor cells from subcutaneous xenografts were transfer to the intracranial compartment. Cells were suspended in DMEM media at 1×10^5 cells/μL for intracranial injection. 3 μL of tumor cell suspension (3×10^5 cells total) were injected into the right caudate putamen of 6 week-old female athymic mice (nu/nu). Prior to injection, the mice were anesthetized IP (intraperitoneal injection) (ketamine/xylazine). 0.4 mg of irinotecan was administrated via tail vein to each mouse on day 12 after implantation of tumor cells, and repeated at days 18, 24, and 30. LPS-PMNPs were administered via tail vein 4 hours prior to administration of irinotecan. All treatment groups received treatment with irinotecan. The treatment groups were: 1) control (without LPS-PMNP treatment); 2) LPS-PMNP (LPS-PMNP treatment without magnetic field); and 3) LPS-PMNP with magnetic field (strong localized magnetic field applied to tumor area). For group 3, the strong localized magnetic field was applied to the tumor cranial area using a conical magnet. […]
The irinotecan content in the brain and the tumor from a mouse in each group was also determined. […] Irinotecan levels in the tumor tissues were measured from homogenized tissues in acidic methanol solution, and measured using an HPLC (eluted peaks, 380/540 nm). […]

[7] = test system: human breast cancer xenographs; test: MRI of magnetic field induced localization of gadolinium oxide based PMNPs; type: in vivo, mouse
Method: FIGS. 3(A-D). […] By applying a magnet field for 30 minutes at hind end (blue arrows), the enhanced image of hind-end tumor is observed (3B). The enhanced image of the tumor persists for at least several hours. […] The PMNPs are concentrated at site of a lower abdominal mammary tumor (FIG. 3C) using an external magnetic field placed over the tumor for 30 minutes. […] Imaging was performed over several hours without taking the mouse out of MRI machine thereby maintaining all of the imaging parameters.
FIGS. 4(A-B). Compares the MRI contrast data between […] (gadopentetate dimeglumine) and gadolinium oxide-based PMNPs.
In FIG. 3 are presented results on magnetic immobilization of gadolinium-based PMNPs in a mouse with numerous human breast cancer xenographs. There is no image enhancement for any of the multiple tumors located in different parts of the mouse including one at hind end (green-arrow at bottom of the picture marked tumor). The mouse was then removed and then subjected to thirty minutes of having a magnetic field placed over the tumor demarked by the green arrow. […] The intensity of MRI signal is very similar at both tumor and bladder. This is very different than observed in case of […] where there is a transient image of the bladder and no site specific localization of the contrast agent in any one of the tumors. […]

For `COc1cc(/C=C/C(=O)CC(=O)/C=C/c2ccc(O)c(OC)c2)ccc1O` [curcumin, Curcumin], which “equivalent curcumin concentration able to significantly decrease cell viability by 20%” value [1] is on record?
Its value is 5 µM.

For `COc1cccc2c1C(=O)c1c(O)c3c(c(O)c1C2=O)C[C@@](O)(C(=O)CO)C[C@@H]3O[C@H]1C[C@H](N)[C@H](O)[C@H](C)O1` [Adriamycin, Adriamycin (doxorubicin)], which anti-tumor effect [2] is on record?
Its anti-tumor effect is “relatively ineffective”.

What about the tumor necrosis (MDA-MB-436) of the same molecule?
Its tumor necrosis is “smaller necrotic lesions”.

And the histopathological findings [3]?
The histopathological findings was “colonic inflammation and hyperplasia”.

For `Cn1nnc2c(C(N)=O)ncn2c1=O` [TMZ, temozolomide], which “TMZ content in the tumor” value [4] is on record?
The value was “greater TMZ content in the tumor”.

Which acute inflammation ([5]; 2 mg/kg, compared with LPS-PMNP (10 mg/kg)) does the source give for lipopolysaccharides [free LPS] here?
The acute inflammation was “substantially greater”.

And the inflammation over time ([5]; 10 mg/kg)?
Its inflammation over time is “produced endotoxemia”.

What does the source list for `CCc1c2c(nc3ccc(OC(=O)N4CCC(N5CCCCC5)CC4)cc13)-c1cc3c(c(=O)n1C2)COC(=O)[C@]3(O)CC` [irinotecan]?
irinotecan content in the brain [6]: higher; irinotecan content in the tumor ([6]; HPLC): significantly higher

With `CNC[C@H](O)[C@@H](O)[C@H](O)[C@H](O)CO.CNC[C@H](O)[C@@H](O)[C@H](O)[C@H](O)CO.O=C([O-])CN(CCN(CC(=O)[O-])CC(=O)O)CCN(CC(=O)[O-])CC(=O)O.[Gd+3]` [gadopentetate dimeglumine] as the molecule, how does the “persistence of MRI contrast” value ([7]; mouse, in vivo) read?
Its value is “short lived”.

What about the “distribution of contrast agent (MRI)” value ([7]; within a short time, no magnetic field) of the same molecule?
The value was “concentrates in the bladder”.
